From article PMC12639897 (Journal of Translational Medicine, 2025)

Biological target: T1, β-catenin (Homo sapiens, UniProt P35222)
T1 sequence (P35222 2-781): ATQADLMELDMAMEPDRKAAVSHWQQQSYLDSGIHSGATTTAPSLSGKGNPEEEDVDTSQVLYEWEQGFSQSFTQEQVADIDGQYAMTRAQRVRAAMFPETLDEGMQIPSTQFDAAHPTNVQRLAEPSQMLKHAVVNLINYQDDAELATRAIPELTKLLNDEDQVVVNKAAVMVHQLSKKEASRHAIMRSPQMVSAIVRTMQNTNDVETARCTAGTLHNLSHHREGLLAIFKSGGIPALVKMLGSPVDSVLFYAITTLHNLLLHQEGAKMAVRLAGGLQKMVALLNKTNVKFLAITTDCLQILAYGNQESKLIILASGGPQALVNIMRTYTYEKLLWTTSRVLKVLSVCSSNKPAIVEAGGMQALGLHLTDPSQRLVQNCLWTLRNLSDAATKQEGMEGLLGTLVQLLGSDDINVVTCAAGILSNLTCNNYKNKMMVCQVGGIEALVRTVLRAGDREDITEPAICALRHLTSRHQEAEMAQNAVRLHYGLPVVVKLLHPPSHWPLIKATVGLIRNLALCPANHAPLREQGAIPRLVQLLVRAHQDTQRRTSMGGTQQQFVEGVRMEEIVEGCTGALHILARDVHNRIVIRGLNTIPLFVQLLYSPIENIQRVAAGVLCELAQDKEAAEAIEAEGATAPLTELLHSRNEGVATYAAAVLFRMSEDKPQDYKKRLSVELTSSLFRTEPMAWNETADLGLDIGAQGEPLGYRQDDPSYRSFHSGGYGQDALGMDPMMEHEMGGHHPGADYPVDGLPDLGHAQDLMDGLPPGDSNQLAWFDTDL
Assay: Biolayer interferometry
Assay type: binding

Cc1cccc2c3c(ccc12)C1=C(C(=O)C3=O)[C@@H](C)CO1 [DHTS, 15,16-Dihydrotanshinone I] was tested, and the Kd was 14.6 µM.
